According to patent US10543212B2, “Substituted amines for treating cardiac diseases” (Cardurion Pharmaceuticals, LLC, priority 2017, dated 2020):

target: T1, Full-length, GST-tagged, human CaMKIIδ (Homo sapiens, UniProt Q13557); experiment: CaMKIIδ binding assay (TR-FRET with BODIPY-labeled probe ligand); conditions: CaMKIIδ binding assay, results of Table 2
T1 construct: Full-Length, Glutathione-S-Transferase(GST)-Tagged, Human CaMKIIδ was purchased from Carna Biosciences; purchased Carna Biosciences 02-111
Outline: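 Compounds were tested as 4-fold, eight-point series for 1 hr at room temperature, and IC50 was obtained by logistic fitting against a 3 μM parent-compound control. Signal came from displacement of a 300 nM BODIPY ligand from 0.5 nM GST-CaMKIIδ, detected via Tb-anti-GST in calmodulin/Ca2+ (pH 7.6).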

T1 sequence (Q13557 1-478 isoform Q13557-12): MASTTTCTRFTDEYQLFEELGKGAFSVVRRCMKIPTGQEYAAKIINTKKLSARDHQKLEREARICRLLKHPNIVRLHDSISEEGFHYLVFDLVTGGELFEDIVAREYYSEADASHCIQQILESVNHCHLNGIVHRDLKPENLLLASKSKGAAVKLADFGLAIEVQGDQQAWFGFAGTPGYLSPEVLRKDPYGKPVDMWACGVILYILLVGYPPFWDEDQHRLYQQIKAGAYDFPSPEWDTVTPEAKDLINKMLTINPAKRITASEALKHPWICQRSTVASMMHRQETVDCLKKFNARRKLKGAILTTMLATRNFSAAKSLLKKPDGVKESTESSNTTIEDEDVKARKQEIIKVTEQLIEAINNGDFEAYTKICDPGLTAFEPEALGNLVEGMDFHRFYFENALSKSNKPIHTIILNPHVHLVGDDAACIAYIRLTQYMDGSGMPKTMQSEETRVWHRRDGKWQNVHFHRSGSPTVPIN

**Q.** `C[C@@H](Cn1cnnn1)Oc1cc(-c2cnc(Nc3cn(C4CCN(Cc5nccs5)CC4)nc3C(F)(F)F)nc2)ccc1Cl` [Example 551, (S)-5-(3-((1-(1H-tetrazol-1-yl)propan-2-yl)oxy)-4-chlorophenyl)-N-(1-(1-(thiazol-2-ylmethyl)piperidin-4-yl)-3-(trifluoromethyl)-1H-pyrazol-4-yl)pyrimidin-2-amine] was tested. Which IC50 did it give?
**A.** Its IC50 is 10 to 100 nM.

**Q.** How did the IC50 turn out when `COc1cnc(N2CCCC(N3CCOCC3)C2)cc1Nc1ncc(-c2ccc(Cl)c(O[C@@H](C)Cn3cnnn3)c2)cn1` (stereo partly drawn) [Example 457, 5-(3-(((S)-1-(1H-tetrazol-1-yl)propan-2-yl)oxy)-4-chlorophenyl)-N-(5-methoxy-2-(3-morpholinopiperidin-1-yl)pyridin-4-yl)pyrimidin-2-amine] was run?
**A.** Its IC50 is 10 to 100 nM.

**Q.** Which IC50 does the source give for `COc1cc2c(cc1Nc1ncc(-c3ccc(Cl)c(O[C@@H](C)Cn4cnnn4)c3)cn1)CN(C1CCOCC1)CC2` [Example 502, (S)-N-(5-(3-((1-(1H-tetrazol-1-yl)propan-2-yl)oxy)-4-chlorophenyl)pyrimidin-2-yl)-6-methoxy-2-(tetrahydro-2H-pyran-4-yl)-1,2,3,4-tetrahydroisoquinolin-7-amine] here?
**A.** The IC50 was < 10 nM.

**Q.** With `COc1cc2c(cc1Nc1ncc(-c3ccc(Cl)c(O[C@@H](C)Cn4cnnn4)c3)cn1)CCN(CC(F)F)C2` [Example 476, (S)-N-(5-(3-((1-(1H-tetrazol-1-yl)propan-2-yl)oxy)-4-chlorophenyl)pyrimidin-2-yl)-2-(2,2-difluoroethyl)-7-methoxy-1,2,3,4-tetrahydroisoquinolin-6-amine] as the compound, how does the IC50 read?
**A.** Its IC50 is 10 to 100 nM.

**Q.** For `COc1cc(C2CCCNC2)ccc1Nc1ncc(-c2ccc(Cl)c(O[C@@H](C)Cn3cnnn3)c2)cn1` (stereo partly drawn) [Example 473, 5-(3-(((S)-1-(1H-tetrazol-1-yl)propan-2-yl)oxy)-4-chlorophenyl)-N-(2-methoxy-4-(piperidin-3-yl)phenyl)pyrimidin-2-amine], which IC50 is on record?
**A.** The IC50 was < 10 nM.

**Q.** How did the IC50 turn out when `COc1cc(C2CCN(C3COC3)CC2)c(C)cc1Nc1ncc(-c2ccc(Cl)c(O[C@@H](C)Cn3cnnn3)c2)cn1` [Example 529, (S)-5-(3-((1-(1H-tetrazol-1-yl)propan-2-yl)oxy)-4-chlorophenyl)-N-(2-methoxy-5-methyl-4-(1-(oxetan-3-yl)piperidin-4-yl)phenyl)pyrimidin-2-amine] was run?
**A.** Its IC50 is < 10 nM.

**Q.** With `C[C@@H](Cn1cnnn1)Oc1cc(-c2cnc(Nc3cn(C4CCN(CC(F)(F)F)CC4)nc3C(F)(F)F)nc2)ccc1Cl` [Example 486, (S)-5-(3-((1-(1H-tetrazol-1-yl)propan-2-yl)oxy)-4-chlorophenyl)-N-(1-(1-(2,2,2-trifluoroethyl)piperidin-4-yl)-3-(trifluoromethyl)-1H-pyrazol-4-yl)pyrimidin-2-amine] as the compound, how does the IC50 read?
**A.** Its IC50 is 10 to 100 nM.

**Q.** `COc1ccc(C(=O)N2CCCN(C3COC3)CC2)cc1Nc1ncc(-c2ccc(Cl)c(O[C@@H](C)Cn3cnnn3)c2)cn1` [Example 573, (S)-(3-((5-(3-((1-(1H-tetrazol-1-yl)propan-2-yl)oxy)-4-chlorophenyl)pyrimidin-2-yl)amino)-4-methoxyphenyl) (4-(oxetan-3-yl)-1,4-diazepan-1-yl)methanone] was tested. Which IC50 did it give?
**A.** Its IC50 is < 10 nM.

same assay, conditions: CaMKIIδ binding assay; activity class per Table 2

**Q.** With `CC(Cn1cnnn1)Oc1cc(-c2cnc(Nc3cn(CC4(O)CCC(C)(O)CC4)nc3OCC(F)(F)F)nc2)ccc1Cl` [Example 923, trans-1-((4-((5-(3-(((S)-1-(1H-tetrazol-1-yl)propan-2-yl)oxy)-4-chlorophenyl)pyrimidin-2-yl)amino)-3-(2,2,2-trifluoroethoxy)-1H-pyrazol-1-yl)methyl)-4-methylcyclohexane-1,4-diol] as the compound, how does the IC50 read?
**A.** Its IC50 is < 10 nM.

**Q.** For `C[C@@H](Cn1cnnn1)Oc1cc(-c2cnc(Nc3cn(C4CC5(C4)CN(C4COC4)C5)nc3OCC(F)(F)F)nc2)ccc1C(F)F` [Example 950, (S)-5-(3-((1-(1H-tetrazol-1-yl)propan-2-yl)oxy)-4-(difluoromethyl)phenyl)-N-(1-(2-(oxetan-3-yl)-2-azaspiro[3.3]heptan-6-yl)-3-(2,2,2-trifluoroethoxy)-1H-pyrazol-4-yl)pyrimidin-2-amine], which IC50 is on record?
**A.** The IC50 was < 10 nM.

same assay, conditions: Table 2; CaMKIIδ binding assay, activity given as class A/B/C

**Q.** How did the IC50 turn out when `C[C@@H](Cn1cnnn1)Oc1cc(-c2cnc(Nc3cc(C(C)(C)C)nn3C)nc2)ccc1Cl` [Example 740, (S)-5-(3-((1-(1H-tetrazol-1-yl)propan-2-yl)oxy)-4-chlorophenyl)-N-(3-(tert-butyl)-1-methyl-1H-pyrazol-5-yl)pyrimidin-2-amine] was run?
**A.** Its IC50 is ≥ 100 nM.

**Q.** How did the IC50 turn out when `C[C@@H](Cn1cnnn1)Oc1cc(-c2cnc(Nc3cn(C4CCNCC4)nc3OCCF)nc2)ccc1Cl` [Example 824, (S)-5-(3-((1-(1H-tetrazol-1-yl)propan-2-yl)oxy)-4-chlorophenyl)-N-(3-(2-fluoroethoxy)-1-(piperidin-4-yl)-1H-pyrazol-4-yl)pyrimidin-2-amine] was run?
**A.** The IC50 was < 10 nM.

**Q.** `C[C@@H](Cn1cnnn1)Oc1cc(-c2cnc(Nc3cn(C4CCC(CC(N)=O)CC4)nc3C(F)(F)F)nc2)ccc1Cl` (stereo partly drawn) [Example 852, (S)-2-(4-(4-((5-(3-((1-(1H-tetrazol-1-yl)propan-2-yl)oxy)-4-chlorophenyl)pyrimidin-2-yl)amino)-3-(trifluoromethyl)-1H-pyrazol-1-yl)cyclohexyl)acetamide] was tested. Which IC50 did it give?
**A.** The IC50 was ≥ 100 nM.

**Q.** Which IC50 does the source give for `C[C@@H](Cn1cnnn1)Oc1cc(-c2cnc(Nc3cn(C4CCC(CC(=O)O)CC4)nc3C(F)(F)F)nc2)ccc1Cl` (stereo partly drawn) [Example 851, (S)-2-(4-(4-((5-(3-((1-(1H-tetrazol-1-yl)propan-2-yl)oxy)-4-chlorophenyl)pyrimidin-2-yl)amino)-3-(trifluoromethyl)-1H-pyrazol-1-yl)cyclohexyl)acetic acid] here?
**A.** The IC50 was ≥ 100 nM.

**Q.** Which IC50 does the source give for `C[C@@H](Cn1cnnn1)Oc1cc(-c2cnc(Nc3cn(C4CC4)nc3OCC(F)(F)F)nc2)ccc1Cl` [Example 774, (S)-5-(3-((1-(1H-tetrazol-1-yl)propan-2-yl)oxy)-4-chlorophenyl)-N-(1-cyclopropyl-3-(2,2,2-trifluoroethoxy)-1H-pyrazol-4-yl)pyrimidin-2-amine] here?
**A.** Its IC50 is < 10 nM.

**Q.** How did the IC50 turn out when `C[C@@H](Cn1cnnn1)Oc1cc(-c2cnc(Nc3cn(CC(F)F)nc3OCC(F)(F)F)nc2)ccc1C#N` [Example 767, (S)-2-((1-(1H-tetrazol-1-yl)propan-2-yl)oxy)-4-(2-((1-(2,2-difluoroethyl)-3-(2,2,2-trifluoroethoxy)-1H-pyrazol-4-yl)amino)pyrimidin-5-yl)benzonitrile] was run?
**A.** Its IC50 is < 10 nM.

**Q.** How did the IC50 turn out when `CCOC(=O)c1c(Nc2ncc(-c3ccc(Cl)c(O[C@@H](C)Cn4cnnn4)c3)cn2)cnn1CC` [Example 872, ethyl (S)-4-((5-(3-((1-(1H-tetrazol-1-yl)propan-2-yl)oxy)-4-chlorophenyl)pyrimidin-2-yl)amino)-1-ethyl-1H-pyrazole-5-carboxylate] was run?
**A.** The IC50 was < 10 nM.

**Q.** How did the IC50 turn out when `C[C@@H](Cn1cnnn1)Oc1cc(-c2cnc(Nc3cn([C@@H]4C[C@H]5CC[C@@H](C4)N5C)nc3C(F)(F)F)nc2)ccc1Cl` [Example 758, 5-(3-(((S)-1-(1H-tetrazol-1-yl)propan-2-yl)oxy)-4-chlorophenyl)-N-(1-((1R,3s,5S)-8-methyl-8-azabicyclo[3.2.1]octan-3-yl)-3-(trifluoromethyl)-1H-pyrazol-4-yl)pyrimidin-2-amine] was run?
**A.** The IC50 was < 10 nM.

same assay, conditions: Table 2; activity class for CaMKIIδ

**Q.** For `COc1ccc(N2CC(N3CCOCC3)C2)cc1Nc1ncc(-c2ccc(Cl)c(O[C@@H](C)Cn3cnnn3)c2)cn1` [Example 595, (S)-5-(3-((1-(1H-tetrazol-1-yl)propan-2-yl)oxy)-4-chlorophenyl)-N-(2-methoxy-5-(3-morpholinoazetidin-1-yl)phenyl)pyrimidin-2-amine], which IC50 is on record?
**A.** Its IC50 is 10 to 100 nM.

**Q.** How did the IC50 turn out when `C[C@@H](Cn1cnnn1)Oc1cc(-c2cnc(Nc3cn(CC(O)C(F)(F)F)nc3C(F)(F)F)nc2)ccc1Cl` (stereo partly drawn) [Example 728, 3-(4-((5-(3-(((S)-1-(1H-tetrazol-1-yl)propan-2-yl)oxy)-4-chlorophenyl)pyrimidin-2-yl)amino)-3-(trifluoromethyl)-1H-pyrazol-1-yl)-1,1,1-trifluoropropan-2-ol] was run?
**A.** The IC50 was 10 to 100 nM.

**Q.** How did the IC50 turn out when `COc1ccc(N2CCN(C)CC2)cc1Nc1ncc(-c2ccc(Cl)c(O[C@@H](C)Cn3cnnn3)c2)cn1` [Example 584, (S)-5-(3-((1-(1H-tetrazol-1-yl)propan-2-yl)oxy)-4-chlorophenyl)-N-(2-methoxy-5-(4-methylpiperazin-1-yl)phenyl)pyrimidin-2-amine] was run?
**A.** Its IC50 is < 10 nM.

**Q.** With `C[C@@H](Cn1cnnn1)Oc1cc(-c2cnc(Nc3cn(C4CCSCC4)nc3C(F)(F)F)nc2)ccc1Cl` [Example 663, (S)-5-(3-((1-(1H-tetrazol-1-yl)propan-2-yl)oxy)-4-chlorophenyl)-N-(1-(tetrahydro-2H-thiopyran-4-yl)-3-(trifluoromethyl)-1H-pyrazol-4-yl)pyrimidin-2-amine] as the compound, how does the IC50 read?
**A.** Its IC50 is 10 to 100 nM.

**Q.** For `CNC(=O)C1CN(c2ccc(OC)c(Nc3ncc(-c4ccc(Cl)c(O[C@@H](C)Cn5cnnn5)c4)cn3)c2)C1` [Example 679, (S)-1-(3-((5-(3-((1-(1H-tetrazol-1-yl)propan-2-yl)oxy)-4-chlorophenyl)pyrimidin-2-yl)amino)-4-methoxyphenyl)-N-methylazetidine-3-carboxamide], which IC50 is on record?
**A.** Its IC50 is < 10 nM.

**Q.** `C[C@@H](Cn1cnnn1)Oc1cc(-c2cnc(Nc3cn(Cc4cccnc4)nc3C(F)(F)F)nc2)ccc1Cl` [Example 708, (S)-5-(3-((1-(1H-tetrazol-1-yl)propan-2-yl)oxy)-4-chlorophenyl)-N-(1-(pyridin-3-ylmethyl)-3-(trifluoromethyl)-1H-pyrazol-4-yl)pyrimidin-2-amine] was tested. Which IC50 did it give?
**A.** The IC50 was 10 to 100 nM.

**Q.** `COc1nn(C2CCN(C3CCOCC3)CC2)cc1Nc1ncc(-c2ccc(Cl)c(O[C@@H](C)Cn3cnnn3)c2)cn1` [Example 662, (S)-5-(3-((1-(1H-tetrazol-1-yl)propan-2-yl)oxy)-4-chlorophenyl)-N-(3-methoxy-1-(1-(tetrahydro-2H-pyran-4-yl)piperidin-4-yl)-1H-pyrazol-4-yl)pyrimidin-2-amine] was tested. Which IC50 did it give?
**A.** The IC50 was < 10 nM.
